Experimental data taken from PubChem BioAssay (NCI).
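Test compounds were applied to cells in 96-well plates for 48 hours at 5 doses. At the TGI there is no net growth.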

Tests used:
Assay in all cases: NCI-60 cell line screen, 48 h
OVCAR-4 ovarian = system: OVCAR-4 ovarian
MDA-MB-231 breast = system: MDA-MB-231 breast
CAKI-1 renal = system: CAKI-1 renal
MCF7 breast = system: MCF7 breast
MDA-MB-435 = system: MDA-MB-435
NCI-H23 lung = system: NCI-H23 lung
ACHN renal = system: ACHN renal
LOX IMVI melanoma = system: LOX IMVI melanoma
RXF 393 renal = system: RXF 393 renal
SK-MEL-2 melanoma = system: SK-MEL-2 melanoma

O=C(c1cc2ccccc2[nH]1)N1C2CCC1CN(CCOC(c1ccc(F)cc1)c1ccc(F)cc1)CC2 (stereo not given)
TGI (OVCAR-4 ovarian): > 100 µM | TGI (MDA-MB-231 breast): > 100 µM | TGI (CAKI-1 renal): > 100 µM | TGI (MCF7 breast): > 100 µM | TGI (MDA-MB-435): > 100 µM | TGI (NCI-H23 lung): > 100 µM | TGI (ACHN renal): > 100 µM | TGI (LOX IMVI melanoma): > 100 µM | TGI (RXF 393 renal): 8.41 µM | TGI (SK-MEL-2 melanoma): > 100 µM
